Measured values taken from ChEMBL document CHEMBL5154692, “Synthesis of novel thiazolyl hydrazone derivatives as potent dual monoamine oxidase-aromatase inhibitors” (Eur J Med Chem, 2022).

Legend:
[1] = target: T1, Amine oxidase [flavin-containing] A (Homo sapiens, UniProt P21397); assay: Inhibition of MAO-A (unknown origin) at 1 mM relative to control
T1 sequence (P21397 whole entry): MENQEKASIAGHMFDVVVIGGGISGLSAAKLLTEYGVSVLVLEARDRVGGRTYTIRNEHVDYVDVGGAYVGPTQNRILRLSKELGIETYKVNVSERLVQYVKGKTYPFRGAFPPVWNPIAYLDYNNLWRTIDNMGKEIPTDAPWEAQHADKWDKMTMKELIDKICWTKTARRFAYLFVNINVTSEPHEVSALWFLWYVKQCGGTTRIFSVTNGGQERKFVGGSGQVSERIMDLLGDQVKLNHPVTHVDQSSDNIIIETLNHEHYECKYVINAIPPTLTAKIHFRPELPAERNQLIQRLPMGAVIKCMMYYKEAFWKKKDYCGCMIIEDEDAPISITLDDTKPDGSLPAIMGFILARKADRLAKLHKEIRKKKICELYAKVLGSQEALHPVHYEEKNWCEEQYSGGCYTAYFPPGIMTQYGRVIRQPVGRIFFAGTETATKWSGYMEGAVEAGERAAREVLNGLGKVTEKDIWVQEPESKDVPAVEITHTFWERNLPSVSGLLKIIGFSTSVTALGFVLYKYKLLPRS

[2] = target: T1, Amine oxidase [flavin-containing] A; assay: Inhibition of MAO-A (unknown origin) at 10 mM relative to control; set-up: dose or concentration left out as unconfirmed
[3] = target: T2, Amine oxidase [flavin-containing] B (Homo sapiens, UniProt P27338); assay: Inhibition of MAO-B (unknown origin)
T2 sequence (P27338 whole entry): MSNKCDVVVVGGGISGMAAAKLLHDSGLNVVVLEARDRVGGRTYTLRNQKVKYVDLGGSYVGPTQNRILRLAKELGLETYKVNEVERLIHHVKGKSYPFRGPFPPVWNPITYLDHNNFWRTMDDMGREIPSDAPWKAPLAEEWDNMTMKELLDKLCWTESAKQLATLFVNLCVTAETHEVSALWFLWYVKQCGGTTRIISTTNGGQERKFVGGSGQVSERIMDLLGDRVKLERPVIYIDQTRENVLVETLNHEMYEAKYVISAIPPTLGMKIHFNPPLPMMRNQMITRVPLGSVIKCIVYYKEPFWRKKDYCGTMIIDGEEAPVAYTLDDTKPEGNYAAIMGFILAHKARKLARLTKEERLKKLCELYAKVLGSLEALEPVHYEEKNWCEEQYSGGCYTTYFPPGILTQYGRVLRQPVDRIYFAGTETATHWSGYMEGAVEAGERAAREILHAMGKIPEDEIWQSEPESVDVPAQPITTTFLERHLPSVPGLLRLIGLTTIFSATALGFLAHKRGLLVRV

[4] = target: T1, Amine oxidase [flavin-containing] A; assay: Inhibition of MAO-A (unknown origin)
[5] = target: T3, Aromatase (Homo sapiens, UniProt P11511); assay: Inhibition of aromatase (unknown origin)
T3 sequence (P11511 whole entry): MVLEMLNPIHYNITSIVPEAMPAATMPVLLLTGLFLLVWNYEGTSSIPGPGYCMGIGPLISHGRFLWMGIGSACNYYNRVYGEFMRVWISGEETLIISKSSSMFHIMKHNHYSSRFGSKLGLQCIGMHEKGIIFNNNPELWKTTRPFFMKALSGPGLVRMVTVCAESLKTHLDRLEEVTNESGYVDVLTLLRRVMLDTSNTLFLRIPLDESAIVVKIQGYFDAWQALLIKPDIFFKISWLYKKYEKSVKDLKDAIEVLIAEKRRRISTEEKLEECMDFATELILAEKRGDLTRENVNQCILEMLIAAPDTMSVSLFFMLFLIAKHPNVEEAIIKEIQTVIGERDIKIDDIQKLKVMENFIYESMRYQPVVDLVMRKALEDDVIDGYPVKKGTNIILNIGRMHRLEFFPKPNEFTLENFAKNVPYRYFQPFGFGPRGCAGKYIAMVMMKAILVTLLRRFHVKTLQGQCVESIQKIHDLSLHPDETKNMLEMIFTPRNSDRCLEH

inhibition at 1000 µM [1] [%] | inhibition [2] [%] | IC50 [3] [µM] | IC50 [4] [µM] | IC50 [5] [µM] | Compound
52.2 | 35.5 | – | – | – | COc1ccc2cc(/C=N/Nc3nc(-c4ccc(F)cc4)cs3)ccc2c1
57.8 | 33.4 | 0.082 | – | – | COc1ccc2cc(/C=N/Nc3nc(-c4ccc([N+](=O)[O-])cc4)cs3)ccc2c1
49.8 | 31.1 | – | – | – | COc1ccc2cc(/C=N/Nc3nc(-c4ccc(C)cc4)cs3)ccc2c1
58.7 | 30.4 | – | – | – | COc1ccc2cc(/C=N/Nc3nc(-c4ccc(C#N)cc4)cs3)ccc2c1
48.4 | 39.9 | – | – | – | COc1ccc2cc(/C=N/Nc3nc(-c4cccc(Cl)c4)cs3)ccc2c1
51.4 | 26.6 | – | – | – | COc1ccc2cc(/C=N/Nc3nc(-c4ccccc4)cs3)ccc2c1
90.5 | 84.1 | 0.046 | 0.068 | – | COc1ccc2cc(/C=N/Nc3nc(-c4cccc([N+](=O)[O-])c4)cs3)ccc2c1
59.4 | 32.1 | – | – | – | COc1ccc2cc(/C=N/Nc3nc(-c4cccc(F)c4)cs3)ccc2c1
55.8 | 33.9 | – | – | 0.042 | COc1ccc2cc(/C=N/NC3=NC(=O)CS3)ccc2c1
54.4 | 30.9 | – | – | – | COc1ccc2cc(/C=N/Nc3nc(C)c(C)s3)ccc2c1
47.7 | 32.5 | – | – | – | COc1ccc2cc(/C=N/Nc3nc(-c4ccc(Cl)c(Cl)c4)cs3)ccc2c1
58.4 | 27.7 | – | – | – | COc1ccc2cc(/C=N/Nc3nc(-c4cc5ccccc5o4)cs3)ccc2c1
58.2 | 29.3 | – | – | – | CCOC(=O)c1sc(N/N=C/c2ccc3cc(OC)ccc3c2)nc1C
59.2 | 34.2 | – | – | – | COc1ccc2cc(/C=N/Nc3nc(-c4ccc(-c5ccccc5)cc4)cs3)ccc2c1
53.5 | 37 | – | – | – | COc1ccc2cc(/C=N/Nc3nc(-c4ccc(S(C)(=O)=O)cc4)cs3)ccc2c1
48.4 | 28.8 | – | – | – | COc1ccc2cc(/C=N/Nc3nc(-c4ccc(Cl)cc4)cs3)ccc2c1
50 | 28.1 | – | – | – | COc1ccc(-c2csc(N/N=C/c3ccc4cc(OC)ccc4c3)n2)cc1
90.9 | 82.3 | – | 0.072 | – | COc1ccc2cc(/C=N/Nc3nc(-c4ccccc4)c(C)s3)ccc2c1
55.9 | 35.7 | – | – | – | COc1ccc2cc(/C=N/Nc3nc(-c4ccc5ccccc5c4)cs3)ccc2c1
60.2 | 30.2 | 0.039 | – | 0.031 | CCOC(=O)Cc1csc(N/N=C/c2ccc3cc(OC)ccc3c2)n1
56.7 | 21.9 | – | – | – | COc1cccc(-c2csc(N/N=C/c3ccc4cc(OC)ccc4c3)n2)c1
